Structures are written as SMILES. Some results are limits rather than exact numbers.

As usually defined, the melting point is the temperature of the solid-liquid transition. Compound `CC(=O)c1nccc(N2[C@H](C)CN(c3ccnc([C@@H](C)O)n3)C[C@@H]2C)n1` [Example 45, 1-(4-{4-[2-(1R-Hydroxy-ethyl)-pyrimidin-4-yl]-2R,6S-dimethyl-piperazin-1-yl}-pyrimidin-2-yl)-ethanone] showed a melting point of 123 to 127 °C.

`COc1nc(OC)nc(N2[C@H](C)CN(c3ccnc([C@@H](C)O)n3)C[C@@H]2C)n1` [Example 214, 1R-{4-[4-(4,6-Dimethoxy-[1,3,5]triazin-2-yl)-3R,5S-dimethyl-piperazin-1-yl]-pyrimidin-2-yl}-ethanol] returned a melting point of 187 to 188 °C.

Take `Cc1nc2c(c(Oc3ccccc3)n1)CCN(c1ccnc([C@@H](C)O)n1)C2` [Example 97]: the melting point lay in the range of 156 to 158 °C.

Regarding `Cc1nc(C)nc(N2[C@H](C)CN(c3ccnc([C@@H](C)O)n3)C[C@@H]2C)n1` [Example 242, 1R-{4-[4-(4,6-Dimethyl-[1,3,5]triazin-2-yl)-3R,5S-dimethyl-piperazin-1-yl]-pyrimidin-2-yl}-ethanol], the melting point is 157 to 159 °C.

Regarding `C[C@@H](O)c1nccc(N2CCN(c3ccnc(CO)n3)[C@@H](C)C2)n1` [Example 37, 1R-{4-[4-(2-Hydroxymethyl-pyrimidin-4-yl)-3S-methyl-piperazin-1-yl]-pyrimidin-2-yl}-ethanol], the melting point lay within 178 to 181 °C.

The compound `C[C@@H]1CN(c2nccc(-n3cncn3)n2)C[C@H](C)N1c1ccnc([C@@H](C)O)n1` [Example 196, 1R-{4-[2R,6S-Dimethyl-4-(4-[1,2,4]triazol-1-yl-pyrimidin-2-yl)-piperazin-1-yl]-pyrimidin-2-yl}-ethanol] gave a melting point of 181 to 182 °C.

For the compound `C[C@@H]1CN(C(=O)/C=C/c2cc3ccccc3o2)C[C@H](C)N1c1ccnc([C@@H](C)O)n1` [Example 130, (E)-3-Benzofuran-2-yl-1-{4-[2-(1R-hydroxy-ethyl)-pyrimidin-4-yl]-2R,6S-dimethyl-piperazin-1-yl}-propenone], the melting point was in the range of 80 to 82 °C.

For the compound `C[C@@H](O)c1nccc(N2CCc3nc(N)ncc3C2)n1` [Example 256], the melting point fell in the range of 208 to 210 °C.

For the compound `C[C@@H](O)c1nccc(N2CCC(=C(c3ccccc3)c3ccccc3)CC2)n1` [Example 180], the melting point is 108 to 109 °C.

The compound `C[C@@H](O)c1nccc(N2CCC(=C(c3ccccc3)c3ccccn3)CC2)n1` [Example 181] displayed a melting point of 98 to 101 °C.

As to `C[C@@H](O)c1nccc(N2CCC(=CC(=O)c3ccccc3)CC2)n1` [Example 179], the melting point lay within 44 to 59 °C.

The compound `C[C@@H](O)c1nccc(N2C[C@H]3CCC[C@@H](C2)N3c2ccnc([C@@H](C)O)n2)n1` (stereo in doubt) came in with a melting point of 151 to 158 °C.

Compound `Cc1cc(C)nc(N2C[C@@H](C)N(c3ccnc([C@@H](C)O)n3)[C@@H](C)C2)n1` [Example 27, 1R-{4-[4-(4,6-Dimethyl-pyrimidin-2-yl)-2R,6S-dimethyl-piperazin-1-yl]-pyrimidin-2-yl}-ethanol] returned a melting point of 150.5 to 152 °C.

On to `C[C@@H](O)c1nccc(N2CCc3cnc(-c4ccccc4)nc3C2)n1` [Example 87], for which the melting point is 72 to 74 °C.

With `C[C@@H](O)c1nccc(N2C[C@@H]3C[C@H]2CN3S(=O)(=O)c2ccc(Cl)cc2)n1` [Example 115], the melting point was 83 to 88 °C.

`C[C@@H]1CN(c2ccnc([C@@H](C)O)n2)[C@@H](C)CN1c1ccnc([C@@H](C)O)n1` [Example 4, 1R-(4-{4-[2-(1R-Hydroxy-ethyl)-pyrimidin-4-yl]-2R,S-dimethyl-piperazin-1-yl}-pyrimidin-2-yl)-ethanol] had a melting point of 153 to 155 °C.

Take `C[C@@H](O)c1nccc(N2CCc3nc(-c4ccncc4)ncc3C2)n1` [Example 258]: the melting point lay within 144 to 148 °C.

On to `O=S(=O)(N1CCCC1)N1CCN(c2ccnc(CO)n2)CC1` [Example 121, {4-[4-(Pyrrolidine-1-sulfonyl)-piperazin-1-yl]-pyrimidin-2-yl}-methanol], for which the melting point fell in the range of 128 to 131 °C.

Regarding `C[C@@H]1CN(c2ccnc([C@@H](C)O)n2)C[C@H](C)N1C(=O)c1cc2cnccc2o1` [Example 132, Furo[3,2-c]pyridin-2-yl-{4-[2-(1R-hydroxy-ethyl)-pyrimidin-4-yl]-2R,6S-dimethyl-piperazin-1-yl}-methanone], the melting point is 142 to 143 °C.

In the case of `C[C@@H](O)c1nccc(N2CCN(c3ccnc([C@@H](C)O)n3)[C@@H](C)C2)n1` [Example 38, 1R-(4-{4-[2-(1R-Hydroxy-ethyl)-pyrimidin-4-yl]-2S-methyl-piperazin-1-yl}-pyrimidin-2-yl)-ethanol], the melting point lay within 158 to 160 °C.

`Cc1cc(C)nc(N2[C@H](C)CN(c3ccnc([C@@H](C)O)n3)C[C@@H]2C)n1` [Example 66, 1R-{4-[4-(4,6-Dimethyl-pyrimidin-2-yl)-3R,5S-dimethyl-piperazin-1-yl]-pyrimidin-2-yl}-ethanol]: the melting point fell in the range of 141.5 to 142.5 °C.

`CC(=O)c1nccc(N2C[C@@H](C)N(c3ccnc(C(C)=O)n3)[C@@H](C)C2)n1` [Example 63, 1-{4-[4-(2-Acetyl-pyrimidin-4-yl)-2R*,6S*-dimethyl-piperazin-1-yl]-pyrimidin-2-yl}-ethanone]: the melting point was > 235 °C (dec.).

In the case of `C[C@@H](O)c1nccc(N2CCn3c(nnc3-c3cc4ccccc4s3)C2)n1` [Example 262], the melting point is 224 to 226 °C.

For `C[C@@H]1CN(c2ncnc(-c3ccccc3)n2)C[C@H](C)N1c1ccnc([C@@H](C)O)n1` [Example 215], the melting point fell in the range of 133 to 134 °C.

For `C[C@@H]1CN(c2ccnc(C(C)(C)O)n2)C[C@H](C)N1c1ccnc([C@@H](C)O)n1` [Example 34, 2-(4-{4-[2-(1R-Hydroxy-ethyl)-pyrimidin-4-yl]-3R,5S-dimethyl-piperazin-1-yl}-pyrimidin-2-yl)-propan-2-ol], the melting point was in the range of 138 to 140 °C.

For the compound `C[C@@H](O)c1nccc(N2CCC(O)(c3ccccc3)CC2)n1` [Example 175, (R)-4-Phenyl-1-[2-(1-hydroxy-ethyl)-pyrimidin-4-yl]-piperidin-4-ol], the melting point was determined as 114 °C.

`C[C@@H]1CN(c2ccnc([C@@H](C)O)n2)C[C@H](C)N1c1ccnc(N2CCN(C)CC2)n1` [Example 208, 1R-(4-{3R,5S-Dimethyl-4-[2-(4-methyl-piperazin-1-yl)-pyrimidin-4-yl]-piperazin-1-yl}-pyrimidin-2-yl)-ethanol] displayed a melting point of 181 to 182 °C.

For the compound `C[C@@H](O)c1nccc(N2CCc3c(nc(N)nc3-c3ccccc3)C2)n1` [Example 90], the melting point was 225 to 228 °C (dec.).

For the compound `C[C@@H](O)c1nccc(N2CCN(c3nc4ncccc4o3)[C@@H](C)C2)n1` [Example 20, 1R-[4-(3S-Methyl-4-oxazolo[4,5-b]pyridin-2-yl-piperazin-1-yl)-pyrimidin-2-yl]-ethanol], the melting point was 158 to 161 °C.

Take `C[C@@H](O)c1nccc(N2CCn3c(nnc3-c3ccc4nccnc4c3)C2)n1` [Example 261]: the melting point lay in the range of 212 to 215 °C.

`C[C@@H](O)c1nccc(N2CCc3ccc(S(=O)(=O)N(C)C)cc3C2)n1` [Example 247, (R)-2-[2-(1-Hydroxy-ethyl)-pyrimidin-4-yl]-1,2,3,4-tetrahydro-isoquinoline-7-sulfonic acid dimethylamide] gave a melting point of 120.5 to 122 °C.

As for `C[C@@H](O)c1nccc(N2CCc3c(c(=O)n(-c4cnc5ccccc5n4)n3C)C2)n1` [Example 75, (R)-5-[2-(1-Hydroxy-ethyl)-pyrimidin-4-yl]-1-methyl-2-quinoxalin-2-yl-1,2,4,5,6,7-hexahydro-pyrazolo[4,3-c]pyridin-3-one], the melting point is 217 to 219 °C (dec.).

In turn, `C[C@@H](OC(=O)Cc1nn(Cc2nc3cc(C(F)(F)F)ccc3s2)c(=O)c2ccccc12)c1nccc(N2CCN(c3cnc4ccccc4n3)CC2)n1` [Example 277, (E)-[4-Oxo-3-(5-trifluoromethyl-benzothiazol-2-ylmethyl)-3,4-dihydro-phthalazin-1-yl]-acetic acid 1R-[4-(4-quinoxalin-2-yl-piperazin-1-yl)-pyrimidin-2-yl]-ethyl ester] displayed a melting point of 108 to 112 °C.

In the case of `O=S(=O)(N1CCCCC1)N1CCN(c2ccnc(CO)n2)CC1` [Example 123], the melting point is 141 to 142 °C.

`C[C@@H]1CN(c2ccnc(N3CCN(C)CC3)n2)C[C@H](C)N1c1ccnc([C@@H](C)O)n1` [Example 202, 1R-(4-{2R,6S-Dimethyl-4-[2-(4-methyl-piperazin-1-yl)-pyrimidin-4-yl]-piperazin-1-yl}-pyrimidin-2-yl)-ethanol]: the melting point was 60 to 70 °C.

In turn, `Cc1nc2c(c(-c3ccccc3)n1)CCN(c1ccnc([C@@H](C)O)n1)C2` [Example 86, (R)-1-[4-(2-Methyl-4-phenyl-5,8-dihydro-6H-pyrido[3,4-d]pyrimidin-7-yl)-pyrimidin-2-yl]ethanol] showed a melting point of 114 to 116 °C.

`C[C@@H]1CN(c2ncnc(N3CCOCC3)n2)C[C@H](C)N1c1ccnc([C@@H](C)O)n1` [Example 212, 1R-{4-[2R,6S-Dimethyl-4-(4-morpholino-4-yl-[1,3,5]triazin-2-yl)-piperazin-1-yl]-pyrimidin-2-yl}-ethanol] gave a melting point of 78 to 82 °C.

`C[C@@H]1CN(c2ccnc([C@@H](C)O)n2)CCN1c1ccnc([C@@H](C)O)n1` [Example 39, 1R-(4-{4-[2-(1R-Hydroxy-ethyl)-pyrimidin-4-yl]-2R-methyl-piperazin-1-yl}-pyrimidin-2-yl)-ethanol] came in with a melting point of 155 to 157 °C.

Consider `C[C@@H](O)c1nccc(N2CCn3c(nnc3-c3ccc(-c4ccccc4)cc3)C2)n1` [Example 263], for which the melting point fell in the range of 123 to 125 °C.

Regarding `C[C@@H](O)c1nccc(N2CCC(=Cc3cccc(Cl)c3)CC2)n1` [Example 176, (R)-1-{4-[4-(3-Chlorobenzylidene)-piperidin-1-yl]-pyrimidin-2-yl}-ethanol], the melting point is 45 to 55 °C.

Regarding `CC(=O)c1nccc(N2C[C@@H](C)N(c3ccnc([C@@H](C)O)n3)[C@@H](C)C2)n1` [Example 46, 1-(4-{4-[2-(1R-Hydroxy-ethyl)-pyrimidin-4-yl]-3R,5S-dimethyl-piperazin-1-yl}-pyrimidin-2-yl)-ethanone], the melting point lay within 150 to 164 °C.

The values are drawn from patent US6936600B2, “Sorbitol dehrydrogenase inhibitors” (Pfizer Inc, priority 1999, dated 2005).
